Laboratory results reported in patent US20230150981A1, “N-HETEROARYLALKYL-2-(HETEROCYCLYL AND HETEROCYCLYLMETHYL) ACETAMIDE DERIVATIVES AS SSTR4 AGONISTS” (Takeda Pharmaceutical Compnay Limited, priority 2020, published 2023).

What was measured:
SSTR4 [1] = target: T1, SSTR4 (Homo sapiens, UniProt P31391); assay: SSTR4 I-125 somatostatin competition binding assay (CHO-K1 membranes); details: competition with I-125 somatostatin, membranes from CHO-K1 overexpressing SSTR4; read-out: SSTR4 Binding pIC50 (converted)
T1 construct: host or cells: CHO-K1
T1 sequence (P31391 whole entry): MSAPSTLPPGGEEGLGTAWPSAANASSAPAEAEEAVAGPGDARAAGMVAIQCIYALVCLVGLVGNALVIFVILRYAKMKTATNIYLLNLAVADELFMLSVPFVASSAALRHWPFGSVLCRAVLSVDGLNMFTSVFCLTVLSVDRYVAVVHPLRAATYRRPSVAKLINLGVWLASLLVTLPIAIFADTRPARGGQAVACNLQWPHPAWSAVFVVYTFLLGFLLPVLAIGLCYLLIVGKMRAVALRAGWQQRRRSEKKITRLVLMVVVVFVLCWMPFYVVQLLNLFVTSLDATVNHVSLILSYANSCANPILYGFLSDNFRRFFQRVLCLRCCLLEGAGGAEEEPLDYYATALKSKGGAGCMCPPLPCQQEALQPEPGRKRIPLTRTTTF
Procedure: SSTR4 I-125 Somatostatin Competition Binding Assay
Membranes from CHO-K1 cells overexpressing SSTR4 are purchased from Perkin Elmer (catalog number ES-524-M400UA). Test compounds are suspended in DMSO and then diluted in assay buffer (25 mM HEPES pH 7.4, 10 mM MgCl2, 1 mM CaCl2), 0.5% BSA) plus 0.2 nM I-125 labeled somatostatin (Perkin Elmer catalog number NEX389). Fifty μL of compound/I-125 somatostatin in assay buffer are added per well to 96-well poly-propylene plate. Then 1 μg of SSTR4 membranes in 50 μL assay buffer are added per well. The Plate is incubated for 60 minutes at room temperature. FilterMat A filters (Perkin Elmer catalog number 1450-421) are pre-soaked in 0.5% PEI (Sigma catalog number P3143). The contents of the assay plate are transferred to filters with a TomTech harvester and washed 5 times with 20 mM HEPES, 100 mM NaCl. The filters are dried in a microwave oven then transferred to sample bag containing a scintillator sheet (Perkin Elmer catalog number 1450-441). The scintillator sheets are melted to filters using a heat block. The filters are then read in a MicroBeta scintillation counter. Binding Ki curves are generated using Activity Base for Screening Data Management and the results are reported as pIC50.

SSTR4 [2] = target: T1, SSTR4; assay: Inhibition of forskolin stimulated cAMP in CHO-K1 cells overexpressing SSTR4; format: cell-based; details: read-out: SSTR4 Activity pEC50 (converted)
Method in brief: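 CHO-K1 cells overexpressing SSTR4 treated 30 min at room temperature with compound in Krebs Ringer buffer containing 0.5% BSA, 300 μM IBMX and 350 nM forskolin. Intracellular cAMP measured by HTRF LANCE Ultra (665/615 nm); pEC50 values reported.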

SSTR1 = target: T2, SSTR1 (Homo sapiens, UniProt P30872); assay: SSTR1 I-125 somatostatin competition binding assay for selectivity versus SSTR1 (CHO-K1 membranes); details: competition with I-125 somatostatin, membranes from CHO-K1 overexpressing SSTR1; read-out: SSTR1 Binding pIC50 (converted)
T2 construct: purchased Perkin Elmer ES-520-M400UA; host or cells: CHO-K1 membranes
T2 sequence (P30872 whole entry): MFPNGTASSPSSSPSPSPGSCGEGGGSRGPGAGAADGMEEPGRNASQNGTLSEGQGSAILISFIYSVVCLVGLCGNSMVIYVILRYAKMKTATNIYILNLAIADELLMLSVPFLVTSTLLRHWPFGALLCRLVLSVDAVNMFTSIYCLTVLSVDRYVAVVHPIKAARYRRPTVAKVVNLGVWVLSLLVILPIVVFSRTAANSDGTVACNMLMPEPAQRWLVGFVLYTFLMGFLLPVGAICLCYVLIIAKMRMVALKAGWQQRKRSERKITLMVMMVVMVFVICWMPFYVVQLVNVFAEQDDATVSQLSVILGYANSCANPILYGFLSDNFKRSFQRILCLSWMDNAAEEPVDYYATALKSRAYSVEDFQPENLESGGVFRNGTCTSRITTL
Procedure: SSTR1 I-125 Somatostatin Competition Binding Assay for Selectivity Versus SSTR1
Membranes from CHO-K1 cells overexpressing SSTR1 are purchased from Perkin Elmer (catalog number ES-520-M400UA). Test compounds are suspended in DMSO and then diluted in assay buffer (25 mM HEPES pH 7.4, 10 mM MgCl2, 1 mM CaCl2), 0.5% BSA) plus 0.4 nM I-125 labeled somatostatin (Perkin Elmer catalog number NEX389). Fifty μL of compound/I-125 somatostatin in assay buffer are added per well to 96-well poly-propylene plate. Then 10 μg of SSTR1 membranes in 50 μL assay buffer are added per well. The plate is incubated for 60 minutes at room temperature. FilterMat A filters (Perkin Elmer catalog number 1450-421) are pre-soaked in 0.5% PEI (Sigma catalog number P3143). The contents of the assay plate are transferred to filters with a TomTech harvester and washed 5 times with 20 mM HEPES, 100 mM NaCl. The filters are dried in a microwave oven then transferred to sample bag containing a scintillator sheet (Perkin Elmer catalog number 1450-441). The scintillator sheets are melted to the filters using a heat block. The filters are then read in a MicroBeta scintillation counter. Binding Ki curves are generated using Activity Base for Screening Data Management and the results are reported as pIC50.

## Cc1cc2ccccc2c(C(C)(C)NC(=O)C[C@@H]2CCCN2C)n1 [Example 22, (S)-N-(2-(3-methylisoquinolin-1-yl)propan-2-yl)-2-(1-methylpyrrolidin-2-yl)acetamide]
SSTR4 [1]
  IC50: 63.1 nM
SSTR4 [2]
  EC50: 7.94 nM
SSTR1
  IC50: 2.51 µM

## CC(C)(NC(=O)C[C@@H]1CCCN1)c1nccc2ccccc12 [Example 23, (S)-N-(2-(isoquinolin-1-yl)propan-2-yl)-2-(pyrrolidin-2-yl)acetamide]
SSTR4 [1]
  IC50: 1000 nM
SSTR4 [2]
  EC50: 25.1 nM
SSTR1
  IC50: 7.94 µM

## CN1CCC[C@H]1CC(=O)NC(C)(C)c1nccc2ccccc12 [Example 24, (S)-N-(2-(isoquinolin-1-yl)propan-2-yl)-2-(1-methylpyrrolidin-2-yl)acetamide]
SSTR4 [1]
  IC50: 200 nM
SSTR4 [2]
  EC50: 12.6 nM
SSTR1
  IC50: 6.31 µM

## CCN1CCCC1CC(=O)NC(C)(C)c1nccc2occc12 (stereo not drawn) [Example 27, 2-(1-ethylpyrrolidin-2-yl)-N-(2-(furo[3,2-c]pyridin-4-yl)propan-2-yl)acetamide]
SSTR4 [1]
  IC50: 501 nM
SSTR4 [2]
  EC50: 31.6 nM
SSTR1
  IC50: > 50.1 µM

## CN1CCCC1CC(=O)NC(C)(C)COc1ncccc1C(F)(F)F (stereo not drawn) [Example 28, N-(2-methyl-1-((3-(trifluoromethyl)pyridin-2-yl)oxy)propan-2-yl)-2-(1-methylpyrrolidin-2-yl)acetamide]
SSTR4 [1]
  IC50: 251 nM
SSTR4 [2]
  EC50: 20 nM
SSTR1
  IC50: 15.8 µM

## CN1CCCCC1CC(=O)NC(C)(C)c1ccc(Cl)cc1 (stereo not drawn) [Example 30, N-(2-(4-chlorophenyl)propan-2-yl)-2-(1-methylpiperidin-2-yl)acetamide]
SSTR4 [1]
  IC50: 126 nM
SSTR4 [2]
  EC50: 31.6 nM
SSTR1
  IC50: 31.6 µM

## CN1CCC[C@H]1CC(=O)NC(C)(C)c1nccc2occc12 [Example 34, (S)-N-(2-(furo[3,2-c]pyridin-4-yl)propan-2-yl)-2-(1-methylpyrrolidin-2-yl)acetamide]
SSTR4 [1]
  IC50: 316 nM
SSTR4 [2]
  EC50: 100 nM
SSTR1
  IC50: > 50.1 µM

## CN1CCC[C@H]1CC(=O)NC(C)(C)c1ccc(Cl)cc1 [Example 35, (S)-N-(2-(4-chlorophenyl)propan-2-yl)-2-(1-methylpyrrolidin-2-yl)acetamide]
SSTR4 [1]
  IC50: 316 nM
SSTR4 [2]
  EC50: 63.1 nM
SSTR1
  IC50: 12.6 µM

## CN1CCC[C@@H]1CC(=O)NC(C)(C)c1cc(Cl)ccc1Cl [Example 38, (R)-N-(2-(2,5-dichlorophenyl)propan-2-yl)-2-(1-methylpyrrolidin-2-yl)acetamide]
SSTR4 [1]
  IC50: 316 nM
SSTR4 [2]
  EC50: 63.1 nM
SSTR1
  IC50: 25.1 µM

## CN1CCC[C@@H]1CC(=O)NC(C)(C)c1nccc2occc12 [Example 39, (R)-N-(2-(furo[3,2-c]pyridin-4-yl)propan-2-yl)-2-(1-methylpyrrolidin-2-yl)acetamide]
SSTR4 [1]
  IC50: 794 nM
SSTR4 [2]
  EC50: 50.1 nM
SSTR1
  IC50: > 50.1 µM

## CN1CCC[C@@H]1CC(=O)NC(C)(C)c1ccc(Cl)cc1 [Example 40, (R)-N-(2-(4-chlorophenyl)propan-2-yl)-2-(1-methylpyrrolidin-2-yl)acetamide]
SSTR4 [1]
  IC50: 200 nM
SSTR4 [2]
  EC50: 50.1 nM
SSTR1
  IC50: 20 µM

## Cc1cccc2c(C(C)(C)NC(=O)CC3CCCCN3C)noc12 (stereo not drawn) [Example 41, N-(2-(7-methylbenzo[d]isoxazol-3-yl)propan-2-yl)-2-(1-methylpiperidin-2-yl)acetamide]
SSTR4 [1]
  IC50: 63.1 nM
SSTR4 [2]
  EC50: 3.16 nM
SSTR1
  IC50: 6.31 µM

## Cc1cnc(C(C)(C)NC(=O)CC2CCCCN2C)c2ccccc12 (stereo not drawn) [Example 42, N-(2-(4-methylisoquinolin-1-yl)propan-2-yl)-2-(1-methylpiperidin-2-yl)acetamide]
SSTR4 [1]
  IC50: 3.16 nM
SSTR4 [2]
  EC50: 0.794 nM
SSTR1
  IC50: 0.631 µM

## CN1CCCCC1CC(=O)NC(C)(C)c1cc(Cl)ccc1Cl (stereo not drawn) [Example 45, N-(2-(2,5-dichlorophenyl)propan-2-yl)-2-(1-methylpiperidin-2-yl)acetamide]
SSTR4 [1]
  IC50: 158 nM
SSTR4 [2]
  EC50: 25.1 nM
SSTR1
  IC50: 7.94 µM
